Measurements reported in US8450479B2, “3-substituted-4-oxo-3,4-dihydro-imidazo[5,1-d][1,2,3,5-tetrazine-8-carboxylic acid amides and their use” (Pharminox Limited, priority 2007, dated 2013).
“And” between values parts separate entries of the source, which are not always exact repeats. Equal values may be shown once. Read-outs that look alike come from different tables or passages of the source.

Legend:
Format in all cases: cell-based
[1] = test system: Colon DLD1; experiment: MTT assay for 7-day toxicity assay
Method in brief: (§1)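 Cells seeded at 400 cells/well, attached overnight, then exposed to compound at 0.5–1000 μM final for 7 days at 37 °C, 5% CO2. Viability read by MTT, with a day-0 plate fixed at drug addition as reference.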

[2] = test system: Colon HCT116 (MMR mutated); experiment: MTT assay for 7-day toxicity assay
Method in brief: as §1

[3] = test system: Normal Human Fetal Lung Fibroblast MRC-5; experiment: MTT assay for 7-day toxicity assay
Method in brief: as §1

[4] = test system: glioma MGMT− and MGMT+ cell lines; experiment: MTT assay, glioma lines as a whole; conditions: glioma MGMT− and MGMT+ cell lines
Description: This assay was first described in Mosmann, T., 1983, “Rapid colorimetric assay for cellular growth and survival: Application to proliferation and cytotoxicity assays”, Journal of Immunological Methods, Vol. 65, Nos. 1-2, pp. 55-63.
Glioma cell lines, SNB19 and U373, both MGMT transfected (i.e., SNB19M and U373M) and vector controls (i.e., SNB19V and U373V); colorectal carcinoma cell lines, HCT116, HT29, and DLD1; melanoma cell line, SKMEL-28; breast cell line, MCF-7; and normal human fetal lung fibroblast cell line, MRC-5; were harvested at 60-80% confluence—during the logarithmic phase of growth.
Following harvesting, cells in suspension were gently syringed through a 23 gauge needle to obtain a near-single cell suspension. The desired cell seeding densities were used and added into 96-well plates in 180 μL culture medium if only one test compound was to be added, or 160 μL if two test compounds were to be added in combination, which were allowed to attach at 37° C. (5% CO2) overnight. For the 7 day assay, the cell seeding density for different cell lines was as follows: SNB19V, SNB19M: 650 cells/well; U373V, U373M: 650 cells/well; SNB19VR, U373VR: 650 cells/well; HCT116, DLD-1, SKMEL-28, MRC-5, MCF-7: 400 cells/well.
The two peripheral lanes were used as blank wells (cell free) and filled with 200 μL of medium in order to minimise medium evaporation from the plate. A separate time zero (T0) plate was set up alongside other plates. Serial dilutions in tissue culture medium of a 100 mM stock of test compound in DMSO were prepared immediately before each assay to ten times the final concentrations required, and then 20 μL was added to each well (200 μL total media per well) to achieve final concentrations of 0.5 μM, 1 μM, 5 μM, 10 μM, 50 μM, 100 μM, 500 μM, and 1000 μM. A minimum of four wells received the same test compound concentration. To control wells, including those in the T0 plate, 20 μL of medium was added. Previous assays had been carried out to verify that cell viability was not affected by the amount of DMSO added into the test compound-treated wells. A separate plate treated in the same way, but free of test compound, was used as a measure of cell viability at the time of drug addition (day 0).
After incubation at 37° C., 5% CO2 for 7 days (or immediately for the day 0 plate), cell viability was quantified using the MTT assay. 50 μL of sterile filtered MIT (3-(4,5-dimethylthiazol-2-yl)-2,5-diphenyltetrazolium bromide) (2 mg/mL in phosphate buffered saline) were added to each well (final concentration 0.4 mg/mL) and the plates were re-incubated for 4 hours to allow metabolic conversion of MTT by dehydrogenases in viable cells to insoluble formazan crystals. The medium and any unconverted MTT was aspirated, 150 μL of DMSO was added to each well, and the plates were shaken on a plate shaker (Stuart Scientific 503) to ensure complete formazan solubilisation.
The intensity of absorbance is directly proportional to cell viability. A linear relationship exists between cell number and the amount of formazan and so the mean absorbance determined for each well of the same concentration can be used as a quantitative measure of viable cells compared to the controls. A graph of absorbance against drug concentration was plotted and the test compound concentration (GI50) causing 50% inhibition of control cell growth (absorbance increase from day 0) was calculated by interpolation.

[5] = Homo sapiens, DLD-1, 168 h, Colon DLD1, 7-day MTT, single determinations, read-out: GI50
[6] = Colon HCT116 (MMR mutated), 7-day MTT, single determinations, read-out: GI50
[7] = Homo sapiens, HCT-116, 168 h, Colon HCT116 (MMR mutated), 7-day MTT, single determinations, read-out: GI50
[8] = Homo sapiens, MRC5, 168 h, Normal Human Fetal Lung Fibroblast MRC-5, 7-day MTT, single determinations, read-out: GI50
[9] = Normal Human Fetal Lung Fibroblast MRC-5, 7-day MTT, single determinations, read-out: GI50
[10] = Homo sapiens, DLD-1, Colon DLD1, read-out: GI50
[11] = Colon HCT116 (MMR mutated), read-out: GI50
[12] = Homo sapiens, HCT-116, Colon HCT116 (MMR mutated), read-out: GI50
[13] = Homo sapiens, MRC5, Normal Human Fetal Lung Fibroblast MRC-5, read-out: GI50
[14] = Normal Human Fetal Lung Fibroblast MRC-5, read-out: GI50

C[C@H](c1ccccc1)n1nnc2c(C(N)=O)ncn2c1=O [BB-001, (R)-3-(-1-Phenylethyl)-8-carbamoylimidazotetrazin-4-one]
GI50 [1, 5]: 80.6 µM
GI50 [2, 6]: 194 µM
GI50 [2, 7]: 151 µM
GI50 [3, 8]: 174 µM

C#CCn1nnc2c(C(N)=O)ncn2c1=O [EE-001, 3-Propargyl-8-carbamoylimidazotetrazin-4-one]
GI50 [1, 5]: 29.9 µM
GI50 [2, 7]: 59.9 µM
GI50 [3, 8]: 56.1 µM
GI50 [3, 9]: 66.6 µM
activity in words [4]: more potent than TMZ

CCOC(=O)Cn1nnc2c(C(N)=O)ncn2c1=O [PX-016]
GI50 [1, 5]: 61.1 µM
GI50 [2, 6]: 66 µM
GI50 [2, 7]: 65.2 µM
GI50 [3, 8]: 109 µM
GI50 [3, 9]: 197 µM
activity in words [4]: surprising efficacy

COCn1nnc2c(C(N)=O)ncn2c1=O [PX-020]
GI50 [1, 10]: 55.4 µM
GI50 [2, 11]: 47.4 µM and 52.4 µM and 56.1 µM and 29.5 µM
GI50 [2, 12]: 57.4 µM
GI50 [3, 13]: 61.6 µM
GI50 [3, 14]: 51.5 µM and 74.1 µM
activity in words [4]: surprising efficacious

C[Si](C)(C)CCOCn1nnc2c(C(N)=O)ncn2c1=O [PX-021]
GI50 [1, 10]: 53.7 µM
GI50 [2, 11]: 39.8 µM and 36.6 µM and 40.1 µM
GI50 [2, 12]: 33.6 µM
GI50 [3, 13]: 48.6 µM
GI50 [3, 14]: 65.4 µM
activity in words [4]: surprising efficacious

NC(=O)c1ncn2c(=O)n(CCl)nnc12 [PX-030]
GI50 [2, 12]: 22.3 µM
GI50 [3, 13]: 50.9 µM
GI50 [3, 14]: 67.2 µM

Cn1nnc2c(C(N)=O)ncn2c1=O [TMZ, 3-Methyl-4-oxo-3,4-dihydro-imidazo[5,1-d][1,2,3,5]tetrazine-8-carboxylic acid amide, reference compound]
GI50 [1, 5]: 435 µM
GI50 [1, 10]: 435 µM
GI50 ([1]; Homo sapiens, DLD-1, Colon DLD1, average of Table 1, read-out: TMZ GI50 Average): 435 µM
GI50 [2, 6]: 570 µM and 594 µM
GI50 [2, 7]: 607 µM
GI50 ([2]; Homo sapiens, HCT-116, Colon HCT116 (MMR mutated), average of Table 1, read-out: TMZ GI50 Average): 591 µM
GI50 [2, 12]: 591 µM
GI50 [3, 8]: 441 µM
GI50 ([3]; Homo sapiens, MRC5, Normal Human Fetal Lung Fibroblast MRC-5, average of Table 1, read-out: TMZ GI50 Average): 449 µM
GI50 [3, 13]: 449 µM
GI50 [3, 9]: 458 µM
activity in words [4]: demonstrably more active in the glioma lines which are MGMT−

C[S+]([O-])Cn1nnc2c(C(N)=O)ncn2c1=O (stereo not shown) [UU-003, 3-Methanesulfinylmethyl-4-oxo-3,4-dihydro-imidazo[5,1-d][1,2,3,5]tetrazine-8-carboxylic acid amide]
GI50 ([1]; Colon DLD1, read-out: GI50): 9.3 µM
GI50 [1, 10]: 8.2 µM
GI50 [2, 11]: 5.3 µM and 5 µM
GI50 [2, 12]: 6.7 µM
GI50 [3, 13]: 56.8 µM
GI50 [3, 14]: 55.2 µM and 52.1 µM
activity in words [4]: surprising efficacy
